For this assay, the target named is T1, thrombin (THR, FIIα) (Homo sapiens, UniProt P00734).
T1 construct: gene F2; human recombinant THR
In words: chromogenic substrate S-2238 assay; affinity ultrafiltration LC-MS hit. In kind it is biochemical.

Usually IC50 stands for the concentration needed to halve the response being measured. Read a high IC50 as weaker potency in that assay. Consider `CC(=O)OC(CCc1ccc(O)cc1)CC(CCc1ccc(O)c(O)c1)OC(C)=O` (stereo not drawn) [C11, 4-[3,5-bis(acetyloxy)-7-(4-hydroxyphenyl)heptyl]-1,2-benzenediol], for which the half-inhibitory concentration (IC50) stood at 654 µM.
Then `CC(=O)OC(CCc1ccc(O)cc1)CC(O)CCc1ccc(O)cc1` (stereo not drawn) [C8, 3-acetate-1,7-bis(4-hydroxyphenyl)-3,5-heptanediol], with 9.92 µM; and `CC(=O)OC(CCc1ccc(O)c(O)c1)CC(CCc1ccc(O)c(O)c1)OC(C)=O` (stereo not drawn) [C7, 4,4′-[3,5-bis(acetyloxy)-1,7-heptanediyl]bis-1,2-benzenediol], with 358 µM.
